From EP0925782A2, “Cosmetics” (SOGO PHARMACEUTICAL COMPANY LIMITED, priority 1997, dated 1999)
Counter-ions that a name gives are not always drawn.

Tests used:
[1] = Test for a moisturizability (weight change after standing at constant temperature and humidity); assay type: physicochemical; details: dried sample, 20°C, humidity 75% for 7 days, then 20°C, humidity 45% for 7 days, evaluated from change in weight
Description: Approximately one gram of a sample was taken in a weighing bottle, and dried with diphosphorus pentoxide under reduced pressure for 4 hours. The resulting sample was used in the following test. The weight was accurately measured, and the sample was allowed to stand in a constant temperature and constant humidity box having a temperature of 20°C and a humidity of 75% for 7 days. Subsequently, the sample was moved in a constant temperature and constant humidity box having a temperature of 20°C and a humidity of 45%, and allowed to stand for 7 days. The moisturizability was evaluated from the change in weight. As a control sample, glycerin was used. […]

[2] = system: rat; details: p. o.; cited from earlier work

Structure (SMILES)	Water holding capacity (%) ([1]; sodium salt)	Water holding capacity (%) [1]	LD50 [2]
N[C@@H](CCC(=O)NCCS(=O)(=O)O)C(=O)O [Glutaurine sodium salt, glutaurine sodium salt]	19.45%	–	–
OCC(O)CO [Glycerin, glycerin, reference compound]	–	19.88%	–
N[C@@H](CCC(=O)NCCS(=O)(=O)O)C(=O)O [Glutaurine, glutaurine]	–	17.12%	> 1000 mg/kg
